The values below come from patent US20240207402A1, “MEANS AND METHODS FOR ENHANCING RECEPTOR-TARGETED GENE TRANSFER” (Deutsches Krebsforschungszentrum Stiftung des öffentlichen …, priority 2021, published 2024).

The test system of series [1] is activated PBMC. Briefly: Transduction of fully activated PBMC with targeted LVs in presence of dasatinib (GFP expression, flow cytometry). The series is classed as cell-based, human.
For series [2], the system named is activated PBMC. The series can be described thus: Vector titers (transducing units/mL) on activated PBMC. The series is classed as cell-based, human. As for the experimental part:
Transduction was additionally promoted by the transduction enhancer VF-1. Culture medium without dasatinib and Vectofusin-1 was used for control transductions. Transgene expression in T-cells was evaluated 3 and 7 days post transduction by flow cytometry. […] After spinfection, 100 μL of fresh media, either containing the different dasatinib concentrations or without dasatinib, was added and the cells were cultured at 37° C. The medium was changed to fresh TCM with IL-2 or IL-7/15 without dasatinib 3 h, 5 h or 7 h after start of incubation with dasatinib. The cells were further cultured at 37° C., and analyzed for transgene expression 3-4 and 7 days post transduction by flow cytometry. Vector titers were determined in transducing units per milliliter (T U/mL) from LV dilutions showing linear correlation to the number of transgene-positive cells and calculated using following equation.

In series [3] the test system is freshly isolated PBMC exposed solely to IL-7/15. The series is classed as cell-based, human.
For series [4], the system named is CD25. The series is classed as cell-based, human.
In series [5] the test system is activated PBMC. The series is classed as cell-based, human.
For series [6], the system named is CD19+Nalm-6 cells. The series is classed as cell-based, human. Conditions: effector:target 0.5:1.
Series [7] concerns Nalm-6 cells. The series is classed as cell-based, human.
Series [8] deals with activated PBMC. Briefly: Binding of CD3-targeted LVs to activated PBMC (anti-His staining). The series is classed as cell-based, human. The settings on record: 100 nM dasatinib, 7 h and 24 h after start of treatment. On the procedure:
To understand the mechanism behind the transduction enhancing characteristic of dasatinib, fully activated PBMC were incubated with CD3-targeted LVs, as described above, and analyzed via flow cytometry 7, 24 and 72 h after start of incubation with dasatinib and transduction. Cells were stained with anti-His-PE, allowing the detection of L. Vs bound to the cells.

The test system of series [9] is activated PBMC. The series can be described thus: Comparison of tyrosine kinase inhibitors on targeted LV transduction of activated PBMC. The series is classed as cell-based, human. The settings on record: 5 h; for effect of TKI on transduction by targeted LVs: 50 nM dasatinib, 1 μM imatinib or 30 μM genistein.
The subject of series [10] is human whole blood. The series is classed as cell-based. Conditions: 100 nM dasatinib, five to six days.
Series [11] deals with splenocytes isolated from huNSG mice. The series is classed as cell-based, humanized NSG mice. The settings on record: CD3-LV(GFP), 50 or 100 nM dasatinib 5 h, three days post transduction.
Series [12] deals with human CD3 receptor. The series is classed as cell-based. The settings on record: 50 or 100 nM dasat., three days post transduction.
The subject of series [13] is CD45+ cells isolated from blood. The series can be described thus: In vivo transduction in PBMC-humanized NSG mice. The settings on record: 10 mg/kg dasatinib i.p. one hour prior to CD3-LV i.v., seven days, not statistically significant.
Protocol: For humanization, 1×10^7 ex vivo activated PBMC were transplanted by intravenous (i.v.) tail-vein injection into 8 week old mice. Humanization levels were measured and used for grouping of the mice by flow cytometry from blood taken eleven days post PBMC injection. The following day, 10 mg/kg dasatinib diluted in vehicle (4% DMSO, 33.3% PEG-300, 5% Tween80, 57.7% ddH20) was intraperitoneally (i.p.) administered to the mice, one hour prior to CD3-LV i.v. injection. The animals were sacrificed seven days post vector administration. Blood, spleen and bone marrow were collected and single cell 35 suspensions were prepared and analyzed by flow cytometry. Additionally, genomic DNA was isolated from the single cell suspension and used for vector copy number (VCN) analysis using quantitative polymerase chain reaction (qPCR).
Series [14] has as its system activated PBMC.
The subject of series [15] is freshly isolated PBMC exposed solely to IL-7/15. The settings on record: 100 nM dasatinib, day 4 and 7.

Molecules are shown by their SMILES.

In the case of `Cc1nc(Nc2ncc(C(=O)Nc3c(C)cccc3Cl)s2)cc(N2CCN(CCO)CC2)n1` [dasatinib, N-(2-Chloro-6-methylphenyl)-2-[[6-[4-(2-hydroxyethyl)-1-piperazinyl]-2-methyl-4-pyrimidinyl]amino]-5 thiazolecarboxamide], in series [1], the “GFP-expression, TR66-LV in presence of dasatinib” value is recorded as 30%; the “T-cells transduced by CD3-LVs in presence of dasatinib” value is reported as “up to 70%”; the “effect of pretreatment on cell-directed gene transfer using CD3-LVs” value is listed as “dramatically increases”; the “effect on CD4-LV transduction” value is given as “slight increase”. In series [1], the “effect on transduction by CD8-LV and VSV-LV” value is listed as “not affected”; the “increase in transduction (maximum in this setup)” value worked out at 3 fold; the “increase in transduction compared to untreated cells” value is recorded as 1.6 fold; the “increase in transduction compared with Vectofusin-1” value is given as “even stronger than by the transduction enhancer Vectofusin-1”. In [1], the “less transduction after short incubation compared to longer incubation time” value is given as 10-35%; the “stability of gene transfer” value is listed as “remained stable”; the “transduction enhancement at lowest concentration” value is given as “not sufficient to enhance transduction”; the “transduction for TR66-LV, VF-1 added in presence of dasatinib” value was approximately 70%. For the same molecule, the “increase of titers of CD3-LV(CAR) in presence of dasatinib” value in series [2] (CD19 CAR, three days post transduction) was 3-16 fold. Also, the “titers of CD3-LV(GFP) in presence of dasatinib” value in [2] (with dasatinib) is on record as 1e7-1e8 T.U./mL. The “TR66-LV mediated gene transfer, VF-1 added to dasatinib-treated cells” value in [3] (IL-7/15 only PBMC, 100 nM dasatinib plus VF-1) stood at 10%. In [3] (in presence of dasatinib (summary)), the “improvement of CD3-LV transduction of cytokine-only stimulated T-cells” value was 7 fold. The “CD25-expression upon activating antibodies or CD3-LVs in presence of dasatinib” value in series [4] is reported as “did not cause an increase”. In series [5], the “CAR transduction in presence of VF-1 with dasatinib” value is recorded as 13% and the “CAR-expression, CD3-LV transduced cells, dasatinib present” value was “up to 10%”. Further, the “tumor killing (dead target cells) by CAR T cells generated in presence of dasatinib” value in series [6] (4 h) is given as “around 40%”. In addition, in series [6] (24 h), the “Nalm-6 cells killed by CD19-CAR T cells” value is recorded as “nearly all”. Moreover, the “overall CAR expression compared to untreated cells” value in [7] (50 nM dasatinib during transduction with CD3-LV(CAR)) is listed as “increased”. In addition, the “target cell killing by CAR T cells generated in presence of dasatinib” value in series [7] (50 nM dasatinib, day 2 up to day 8, 1:1 ratio) is reported as “complete target cell killing”. Besides, the “CAR T cell exhaustion and phenotype markers dependent on dasatinib treatment” value in series [7] (day 8 of the killing assay) is “no difference”. Besides, the “amount of CD3-LVs bound to the cells” value in series [8] was “substantially increased”. Moreover, the “increase of transgene expression, transduction with CD3-LV” value in series [9] (50 nM dasatinib or 1 μM bosutinib, GFP three days post transduction) is on record as approximately 4 fold. Moreover, the “effect of TKI on transduction by targeted LVs” value (“effect of TKI on transduction” below) in [9] was “strongest increase”. For the same molecule, the “GFP-expression of CD3+ cells, CD3-LV in presence of dasatinib” value in series [10] is listed as “above 2%”. The “GFP expression of CD45+ splenocytes in presence of dasatinib” value in series [11] was “around 25%”. Further, the “MFI of the CD3 receptor in presence of CD3-LV and dasatinib” value in series [12] is given as “only slightly reduced”. Besides, the “GFP-expression and vector integration in genomic DNA of blood cells in vivo” value in series [13] is listed as “clear tendency”. Moreover, in [14] (activated PBMC, 100 nM dasatinib, day 3 and 7), the “viability in presence of dasatinib compared to untreated cells” value is on record as “not compromised”. In addition, the “viability of the cells at high dasatinib concentration” value in [14] (dasatinib concentrations above 50 nM, 3 days post transduction) is reported as “dropped slightly”. Besides, the “cell viability of non-activated cells” value in series [15] was “did not negatively affecT-cell viability”.
`O=c1c(-c2ccc(O)cc2)coc2cc(O)cc(O)c12` [genistein]: the “effect of TKI on transduction” value in series [9] is recorded as “slight increase”.
For `Cc1ccc(NC(=O)c2ccc(CN3CCN(C)CC3)cc2)cc1Nc1nccc(-c2cccnc2)n1` [imatinib, 4-[(4-Methylpiperazin-1-yl)methyl]-N-{4-methyl-3-[(4-pyridin-3˜ ylpyrimidin-2-yl)amino]phenyl}benzamid], in series [9], the “effect of TKI on transduction” value is “did not lead to an increase”.
